Like-named read-outs stand apart in the source and are kept apart here.
Tests used:
NCI-H1793 = test: CellTiter-Glo proliferation and viability assay; assay type: cell-based; conditions: Homo sapiens
Ba/F3 c-Kit K642E = test: Ba/F3 c-Kit anti-proliferation assay; assay type: cell-based; conditions: Mus musculus, BaF3, Ba/F3 c-Kit K642E, read-out: Anti-proliferation activities (IC50)
Experimental: (§1) To further evaluate the test compound, it is tested against c-Kit mutations commonly occurring in melanoma and/or GIST. Ba/F3 cell line (from ATCC) are transfected with wild type (WT) c-Kit, c-Kit L576P (Willmore-Payne et al, Human Pathology, 2005, 36(5), 486; Willmore-Payne et al, Human Pathology, 2006, 37, 520), c-Kit K642E (Willmore et al, Am J Clin Pathol, 2004, 122(2), 206; Monsel et al, Oncogene, 2010, 29, 227), c-Kit T670I (Tamborini et al, Oncogene, 2006, 25, 6140), or c-Kit V654A (Tamborini et al, Oncogene, 2006, 25, 6140), respectively are established by retroviral transfection methods well known and used by those skilled in the art. The mutations are generated by polymerase chain reaction (PCR) mutagenesis and confirmed by automated sequencing of the PCR-amplified c-Kit expression construct. Ba/F3 stable cell lines are generated by transfecting with plasmid DNA. Expression of the appropriate c-Kit mutants is confirmed by Western blot analysis.
(§2) Wild type Ba/F3 cells are generally dependent on IL-3 for growth. After c-Kit transfection, these cells are grown in Ba/F3 ATCC recommended growth medium in the presence of stem cell factor (SCF), the ligand of c-Kit. The anti-proliferation activities of test compounds against these cells are tested in the presence of IL-3 or SCF.

Ba/F3 c-Kit V654A = test: Ba/F3 c-Kit anti-proliferation assay; assay type: cell-based; conditions: Mus musculus, BaF3, Ba/F3 c-Kit V654A, read-out: Anti-proliferation activities (IC50)
Experimental: as §1, §2

Ba/F3 c-Kit T670I = test: Ba/F3 c-Kit anti-proliferation assay; assay type: cell-based; conditions: Mus musculus, BaF3, Ba/F3 c-Kit T670I, read-out: Anti-proliferation activities (IC50)
Experimental: as §1, §2

Ba/F3 c-Kit WT = test: Ba/F3 c-Kit anti-proliferation assay; assay type: cell-based; conditions: Mus musculus, BaF3, Ba/F3 c-Kit WT, read-out: Anti-proliferation activities (IC50)
Experimental: as §1, §2

Ba/F3 c-Kit L576P = test: Ba/F3 c-Kit anti-proliferation assay; assay type: cell-based; conditions: Mus musculus, BaF3, Ba/F3 c-Kit L576P, read-out: Anti-proliferation activities (IC50)
Experimental: as §1, §2

NUGC-3 = test: CellTiter-Glo proliferation and viability assay; assay type: cell-based; conditions: Homo sapiens
NCI-H2052 = test: CellTiter-Glo proliferation and viability assay; assay type: cell-based; conditions: Homo sapiens
NCI-H522 = test: CellTiter-Glo proliferation and viability assay; assay type: cell-based; conditions: Homo sapiens
PLC-PRF-5 = test: CellTiter-Glo proliferation and viability assay; assay type: cell-based; conditions: Homo sapiens
LN 18 = test: CellTiter-Glo proliferation and viability assay; assay type: cell-based; conditions: Homo sapiens
COLO-829 = test: CellTiter-Glo proliferation and viability assay; assay type: cell-based; conditions: Homo sapiens
MOLT-4 = test: CellTiter-Glo proliferation and viability assay; assay type: cell-based; conditions: Homo sapiens
RKO = test: CellTiter-Glo proliferation and viability assay; assay type: cell-based; conditions: Homo sapiens
A-Raf (WT) = molecular target: T1, A-Raf (WT) (Homo sapiens, UniProt P10398); test: ActivX KiNativ A375 whole cell lysate assay; assay type: binding
T1 construct: Measurement of Raf Kinase Activities with Native Whole Enzymes Using KiNativ Assay; host or cells: A375 human melanoma cells, whole cell lysate
T1 sequence (P10398 1-606): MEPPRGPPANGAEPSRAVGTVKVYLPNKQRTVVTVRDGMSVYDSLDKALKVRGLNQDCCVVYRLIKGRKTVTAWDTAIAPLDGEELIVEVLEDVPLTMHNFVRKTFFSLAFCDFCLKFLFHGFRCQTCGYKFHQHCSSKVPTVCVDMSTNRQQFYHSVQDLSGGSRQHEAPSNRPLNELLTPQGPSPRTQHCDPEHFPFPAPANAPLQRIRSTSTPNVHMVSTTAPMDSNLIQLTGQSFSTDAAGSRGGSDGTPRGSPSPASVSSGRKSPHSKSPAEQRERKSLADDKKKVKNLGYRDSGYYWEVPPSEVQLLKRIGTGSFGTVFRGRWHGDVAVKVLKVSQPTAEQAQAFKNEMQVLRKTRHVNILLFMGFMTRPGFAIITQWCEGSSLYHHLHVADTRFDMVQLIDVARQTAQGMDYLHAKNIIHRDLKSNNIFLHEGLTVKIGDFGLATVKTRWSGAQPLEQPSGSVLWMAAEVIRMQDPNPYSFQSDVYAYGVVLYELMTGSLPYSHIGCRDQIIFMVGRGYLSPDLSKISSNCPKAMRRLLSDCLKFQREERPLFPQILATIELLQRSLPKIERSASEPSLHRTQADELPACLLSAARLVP

HT-29 = test: CellTiter-Glo proliferation and viability assay; assay type: cell-based; conditions: Homo sapiens
MDA-MB-436 = test: CellTiter-Glo proliferation and viability assay; assay type: cell-based; conditions: Homo sapiens
NCI-H1975 = test: CellTiter-Glo proliferation and viability assay; assay type: cell-based; conditions: Homo sapiens
IM-9 = test: CellTiter-Glo proliferation and viability assay; assay type: cell-based; conditions: Homo sapiens, read-out: Abs IC50

IC50 (NCI-H1793; read-out: Abs IC50): > 20 nM
IC50 (NCI-H1793; read-out: Rel IC50): 0.36 nM
IC50 (Ba/F3 c-Kit K642E; IL-3): 1200 nM
IC50 (Ba/F3 c-Kit K642E; SCF): 47 nM
IC50 (Ba/F3 c-Kit V654A; IL-3): 2940 nM
IC50 (Ba/F3 c-Kit V654A; SCF): 86 nM
IC50 (Ba/F3 c-Kit T670I; IL-3): 5920 nM
IC50 (Ba/F3 c-Kit T670I; SCF): 290 nM
IC50 (Ba/F3 c-Kit WT; IL-3): 2860 nM
IC50 (Ba/F3 c-Kit WT; SCF): 62 nM
IC50 (Ba/F3 c-Kit L576P; IL-3): 2080 nM
IC50 (Ba/F3 c-Kit L576P; SCF): 179 nM
IC50 (NCI-H2052; read-out: Abs IC50): 1.27 nM
IC50 (NCI-H2052; read-out: Rel IC50): 0.33 nM
IC50 (NCI-H522; read-out: Abs IC50): 4.5 nM
IC50 (NCI-H522; read-out: Rel IC50): 0.22 nM
IC50 (COLO-829; read-out: Abs IC50): 0.05 nM
IC50 (COLO-829; read-out: Rel IC50): 0.04 nM
IC50 (MOLT-4; read-out: Abs IC50): > 20 nM
IC50 (MOLT-4; read-out: Rel IC50): 1.21 nM
inhibition at 0.001 µM (A-Raf (WT); 1 nM): 4.3%
inhibition at 0.01 µM (A-Raf (WT); 10 nM): 13.4%
inhibition at 0.1 µM (A-Raf (WT); 100 nM): 53.6%
inhibition at 1 µM (A-Raf (WT); 1000 nM): 72%
IC50 (HT-29; HT-29, read-out: Abs IC50): > 20 nM
IC50 (HT-29; HT-29, read-out: Rel IC50): 0.06 nM
IC50 (HT-29; HT-29, B-Raf V600E, colon, CellTiter-Glo, read-out: IC50): 7.3 nM
IC50 (MDA-MB-436; read-out: Abs IC50): > 20 nM
IC50 (MDA-MB-436; read-out: Rel IC50): 0.26 nM
IC50 (NCI-H1975; read-out: Abs IC50): 0.93 nM
IC50 (NCI-H1975; read-out: Rel IC50): 0.69 nM
Structure (SMILES): CNc1ncc2cc(-c3cc(NC(=O)NCCC(C)(C)C)c(F)cc3C)c(C)nc2n1 [Example 1, 1-(3,3-Dimethylbutyl)-3-(2-fluoro-4-methyl-5-(7-methyl-2-(methylamino)pyrido[2,3-d]pyrimidin-6-yl)phenyl)urea]
IC50 (NUGC-3; read-out: Abs IC50): 0.68 nM
IC50 (NUGC-3; read-out: Rel IC50): 0.21 nM
IC50 (PLC-PRF-5; read-out: Abs IC50): > 20 nM
IC50 (PLC-PRF-5; read-out: Rel IC50): 11.7 nM
IC50 (LN 18; read-out: Abs IC50): > 20 nM
IC50 (LN 18; read-out: Rel IC50): > 20 nM
IC50 (RKO; read-out: Abs IC50): 4.92 nM
IC50 (RKO; read-out: Rel IC50): 0.26 nM
IC50 (IM-9): 0.38 nM

Reference: US8741911B2, “Raf inhibitor compounds” (Eli Lilly and Company, priority 2012, dated 2014)
